In US20240307283A1, “COMPOSITIONS AND METHODS FOR DECREASING PIGMENTATION” (The General Hospital Corporation, priority 2021, published 2024):

Legend:
murine Melan-A cells = assay: Melanin content of Melan-A cells with NNT inhibitors; assay type: cell-based, mouse; details: 2 mM, FIG. 3A
Procedure: Murine Melan-A (Bennett et al., 1987) cells were obtained from the Wellcome Trust Functional Genomics Cell Bank. Melan-A cells were grown in RPMI 1640 supplemented with 10% FBS or FetalPlex (Gemini Bio-Products, #100-602), 100,000 U/L penicillin, 100 mg/L streptomycin sulphate, 100× Glutamax, and 200 nM TPA.
(§1) In vitro culture with NNT inhibitors: 2,3-Butanedione 97% (2,3 BD) (Sigma Aldrich, #B85307) (1 μM, 10 μM, 100 μM, 2 mM), N,N-Dicyclohexylcarbodiimide (DCC) (Sigma Aldrich, #D80002) (1 mM, 2 mM, 10 mM), and Palmitoyl coenzyme A lithium salt (Sigma Aldrich, #P9716) (10 μM, 2 mM) were reconstituted with DMSO (American Type Culture Collection, 4-X).
(§2) Melanin quantification: Equal numbers of cells were plated in 6-well plates. The cells were then harvested 72-96 hours post siRNA or NNT inhibitors compounds, as indicated in the legends, pelleted, washed in PBS and counted. 10^6 cells were used for measurement of protein concentration with the Pierce BCA protein assay (Thermo Fisher Scientific, #23225) and 10^6 cells were resuspended in 60 μl of 1 N NaOH solution and incubated at 60° C. for 2 h or until the melanin was completely dissolved. After cooling down to room temperature, samples were centrifuged at 500×g for 10 min and the supernatants were loaded onto a 96-well plate. The melanin content was determined by measuring the absorbance at 405 nm on an Envision plate reader, compared with a melanin standard (0 to 50 μg/ml; Sigma Aldrich, #M8631). Melanin content was expressed as micrograms per milligram of protein.

[1] = test system: UACC257 human melanoma cell line; assay: Cell viability of UACC257 cells; assay type: cell-based; details: different doses, FIG. 10E
Procedure: (§3) Cell viability assay: Human melanoma cell lines and isolated primary cultured human melanocytes were propagated and tested in early passage (Passages 7 to 9). The effects of NNT inhibitors (2,3BD, DCC, and Palmitoyl coenzyme A lithium salt) on cell viability were evaluated by the CellTiter-Glo Luminescent Cell Viability Assay (Promega, #G7570) and measurement of luminescence was performed on an EnVision 2104 Multilabel Reader (PerkinElmer). Human melanoma cell lines and primary melanocytes were plated on 96-well white plates (10,000 cells/well) and were treated with the NNT inhibitors at the indicated concentrations for 24 h.

primary melanocytes = assay: Cell viability of primary melanocytes, different doses; assay type: cell-based, human; details: different doses, relative to vehicle, FIG. 10C
Procedure: as §3

zebrafish melanocytes = assay: Chemical treatment of zebrafish, melanocytic brightness; assay type: in vivo; details: 24 hours, 100 μM 2,3BD or 50 μM DCC
Procedure: Wildtype Tübingen zebrafish were placed in a 24 well plate at 72 hours post-fertilization, with 10 larvae per well for a total twenty larvae per condition. Larvae were treated for 24 hours with either 2,3BD (1 μM, 10 μM, 100 μM, 1 mM; Sigma Aldrich, #B85307), DCC (1 μM, 10 μM, 50 μM, 100 μM; Sigma Aldrich, #D80002), or DMSO (1:500) in E3 embryo medium. At 4 days post fertilization, larvae were imaged using a Nikon SMZ18 Stereomicroscope. Melanocytes from at least 5 zebrafish embryos of each group for each experiment were analyzed using the FIJI software enabling pixel-based color quantification.

NNT [2] = target: T1, NNT (Homo sapiens, UniProt Q13423); assay: GSH/GSSG ratio in UACC257 melanoma cells; assay type: cell-based; set-up: endogenous in cells; details: different doses
T1 sequence (Q13423 44-1086): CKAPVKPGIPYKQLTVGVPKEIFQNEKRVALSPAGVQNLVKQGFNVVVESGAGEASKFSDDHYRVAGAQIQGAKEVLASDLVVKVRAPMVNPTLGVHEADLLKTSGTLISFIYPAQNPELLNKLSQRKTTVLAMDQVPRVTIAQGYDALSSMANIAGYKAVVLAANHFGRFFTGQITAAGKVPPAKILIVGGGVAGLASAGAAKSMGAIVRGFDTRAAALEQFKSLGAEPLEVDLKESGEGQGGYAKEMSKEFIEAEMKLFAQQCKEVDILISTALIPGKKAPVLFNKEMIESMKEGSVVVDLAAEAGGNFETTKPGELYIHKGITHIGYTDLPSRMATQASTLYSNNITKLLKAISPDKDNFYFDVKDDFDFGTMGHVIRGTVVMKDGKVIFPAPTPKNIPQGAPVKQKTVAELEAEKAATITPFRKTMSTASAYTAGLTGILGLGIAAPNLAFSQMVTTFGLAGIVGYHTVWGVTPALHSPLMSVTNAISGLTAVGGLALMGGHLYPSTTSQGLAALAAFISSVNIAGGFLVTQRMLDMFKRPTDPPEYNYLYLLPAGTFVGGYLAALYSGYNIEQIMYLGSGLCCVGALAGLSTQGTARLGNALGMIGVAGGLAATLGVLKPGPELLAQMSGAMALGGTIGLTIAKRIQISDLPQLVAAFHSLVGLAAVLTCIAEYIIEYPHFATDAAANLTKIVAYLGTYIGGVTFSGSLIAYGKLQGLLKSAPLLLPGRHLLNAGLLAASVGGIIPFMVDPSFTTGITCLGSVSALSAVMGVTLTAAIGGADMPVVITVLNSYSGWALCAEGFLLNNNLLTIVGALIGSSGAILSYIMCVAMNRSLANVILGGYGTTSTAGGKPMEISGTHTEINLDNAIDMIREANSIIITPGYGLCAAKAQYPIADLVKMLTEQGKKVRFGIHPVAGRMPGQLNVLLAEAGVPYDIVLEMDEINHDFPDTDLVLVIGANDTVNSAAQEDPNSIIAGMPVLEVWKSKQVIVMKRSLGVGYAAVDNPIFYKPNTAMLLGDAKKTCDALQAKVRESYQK
Procedure: (§4) Glutathione measurements: Cell lysates were prepared from equal numbers of cells after 24 h of DCC or 2,3BD treatment, following the manufacturer's protocols. Seventy-two h post siRNA treatment or overexpression of NNT and their corresponding controls, glutathione levels were determined using the GSH/GSSG-Glo assay (Promega, #V6611) and luminescence was measured using an EnVision 2104 Multilabel Reader (PerkinElmer).

[3] = test system: human melanocytes, dermal fibroblasts, and keratinocytes; assay: Cell viability of human skin cells with NNT inhibitors; assay type: cell-based; details: up to 10 μM, FIG. 10B
Procedure: Primary human keratinocytes were cultured in EpiLife® medium supplemented with human keratinocyte growth supplement (HKGS, ThermoFisher Scientific). Primary human fibroblasts were cultured in medium 106 supplemented with low serum growth supplement (LSGS, ThermoFisher Scientific). 10^6 and […] cells were plated per well of 6-well and 96-well plates, respectively. Drugs indicated in the figure legends were dissolved in DMSO and added 1:1000 to the culture media for 24 h at the concentrations indicated.
as §3

[4] = test system: primary human melanocytes; assay: Intracellular melanin content of primary human melanocytes with NNT inhibitors; assay type: cell-based; details: 2.3 BD 2 mM for 72 hours, FIG. 10D
Excerpt: Primary human melanocytes were isolated from normal discarded foreskins and were established in TIVA medium as described previously (Khaled et al., 2010) or in Medium 254 (Life Technologies, #M254500) (Allouche et al., 2015). Human melanoma cell line UACC257 (sex unspecified) was obtained from the National Cancer Institute (NCI), Frederick Cancer Division of Cancer Treatment and Diagnosis (DCTD) Tumor Cell Line Repository. SK-MEL-30 ([…]) human melanoma cell line was from Memorial Sloan Kettering Cancer Center. Both melanoma cell lines have been authenticated by our lab using ATCC's STR profiling service. UACC257 and SK-MEL-30 cells were cultured in DMEM and RPMI medium (Life Technologies, #11875119) respectively, supplemented with 10% fetal bovine serum and 1% penicillin/streptomycin/L-glutamine in a humidified atmosphere of 95% air and 5% CO2 at 37° C.
as §1, §2

NNT [5] = target: T1, NNT; assay: GSH/GSSG ratio (indirect endpoint of NNT enzyme activity) in primary melanocytes; assay type: cell-based; set-up: endogenous in cells; host or cells: primary human melanocytes (isolated from neonatal foreskins); details: different doses, 24 hours
Procedure: as §4

**Q.** With C(=NC1CCCCC1)=NC1CCCCC1 [DCC, N,N′-Dicyclohexylcarbodiimide] as the compound, how does the melanin content (murine Melan-A cells) read?
**A.** increased melanin content

**Q.** And the cell viability [1]?
**A.** no impact on cell viability

**Q.** What about the cell viability (primary melanocytes) of the same compound?
**A.** no impacts on cell viability

**Q.** What about the “darkening of zebrafish embryos (melanocytic brightness)” value (zebrafish melanocytes) of the same compound?
**A.** significant darkening

**Q.** What about the GSH/GSSG ratio (NNT [2]) of the same compound?
**A.** decreased GSH/GSSG ratios

**Q.** And the “toxicity (viability)” value [3]?
**A.** no significant toxicity

**Q.** What about the intracellular melanin content [4] of the same compound?
**A.** significantly increased the melanin content

**Q.** And the GSH/GSSG ratio (NNT [5])?
**A.** decreased GSH/GSSG ratios
